According to patent US5068340A, “Isothiazolyl substituted glycerol derivatives containing phosphate groups” (priority 1986, dated 1991):
pIC50: −log10 of the molar value. Where a name gives a salt, the structure may show the parent alone.

Legend:
PAF-induced hypotension = test: Inhibition of PAF-induced hypotension (rat, i.v.); type: in vivo, rats of the Wistar-Imamichi strain; conditions: 50% inhibitory dose, intravenous, cumulative doses, 10 ng/kg i.v. 1-C16:0 PAF, Inactin anesthesia, rats, read-out: Inhibition of Hypotension ID50
Experimental: Inhibition of PAF-induced hypotension
The test animals employed were rats of the Wistar-Imamichi strain, each weighing between 350 and 450 g.
Under Inactin anesthesia (90 mg/kg administered intraperitoneally) the left femoral artery and vein of each test animal were cannulated to enable the arterial blood pressure to be monitored continuously and for drug administration, respectively. At intervals of about 5 minutes, each animal was given by intravenous injection 10 ng/kg of synthetic 1-C16:0 PAF until a steady hypotensive response was achieved. At this time, the drug to be tested was administered by intravenous injection in doses increasing cumulatively by a factor of 3. Within 1 minute of this injection, a further 10 ng/kg of the 1-C16:0 PAF was administered. The hypotensive response to PAF was inhibited by the test drug in a dose-related manner.
The PAF was administered in the form of a solution in physiological saline containing 0.25% w/v bovine serum albumin. The test drugs were dissolved in physiological saline containing either 0.25% w/v BSA or 20% v/v ethanol.
The 50% inhibitory dose (ID50) was calculated from the dose-response curve constructed for the inhibition of PAF-induced hypotension.
This test was carried out using compounds of the invention, as well as the prior art compound CV-3988, disclosed in U.S. Pat. No. 4,408,052 and represented by the foregoing formula (B).

[1] = test system: PAF-induced platelet aggregation; test: Inhibition of PAF-induced platelet aggregation in vitro (platelet-rich plasma); type: cell-based; conditions: Oryctolagus cuniculus, 5 min, rabbit plasma, platelet count 6×10^5/μl, C16:0 PAF 1×10^-8-3×10^-8 M final
Experimental: Inhibition of PAF-induced platelet aggregation in vitro
Blood was drawn from a rabbit and immediately mixed with one nineth of its volume of a 3.8% w/v aqueous solution of sodium citrate. A platelet-rich plasma (PRP) was obtained as a supernatant by centrifugation of the blood at 150×g for 15 minutes at room temperature. The precipitated fraction was centrifuged for a further 15 minutes at 1000×g to obtain a platelet-poor plasma (PPP) as a supernatant. Appropriate proportions of this PRP and PPP were mixed to obtain a plasma having a platelet count of 6×10^5 /μl.
Platelet aggregation was determined by the method of Born et al. [G. V. R. Born et al., J. Physiol., 62, 67-68 (1962)] where an increase in light transmission is measured by the aggregometer.
25 μl of a saline solution containing the compound to be tested at an appropriate concentration was added to 250 μl of the above plasma. One minute thereafter. […] The aggregation resulting from the addition of PAF alone, without the prior addition of the test compound was taken as 100%.
The IC50 values (i.e. concentrations to inhibit aggregation by 50%) were calculated from dose-response curves and are shown in Table 6.

Row | Compound | ED50 (PAF-induced hypotension) | pIC50 [1]
1 | CCCCCCCCCCCCCCCCCNC(=O)OCC(COP(=O)([O-])OCC[n+]1ccsc1)Oc1ccon1 (racemic) [Example 13, (2RS)-3-(N-Heptadecylcarbamoyloxy)-2-(3-isoxazolyloxy)propyl 2-thiazolioethyl phosphate (inner salt)] | 0.096 mg/kg | 5.47
2 | CCCCCCCCCCCCCCCCCCNC(=O)OCC(COP(=O)([O-])OCC[n+]1ccsc1)OC (stereo not drawn) [CV-3988, reference compound] | 0.415 mg/kg | 5.01
3 | CCCCCCCCCCCCCCCCCNC(=O)OCC(COC(=O)N(Cc1cccc[n+]1CC)C(C)=O)Oc1ccon1 (racemic) [Example 38, 2-{N-Acetyl-N-[(2RS)-3-(N-Heptadecylcarbamoyloxy)-2-(3-isoxazolyloxy)propoxycarbonyl]aminomethyl}-1-ethylpyridinium chloride] | 0.004 mg/kg | 7.09
4 | CCCCCCCCCCCCCCCc1cc(OCC(COP(=O)([O-])OCCCCCC[n+]2ccsc2)Oc2cc(C)on2)no1 (racemic) [Example 23, (2RS)-3-(5-Pentadecyl-3-isoxazolyloxy)-2-(5-methyl-3-isoxazolyloxy)propyl 6-thiazoliohexyl phosphate (inner salt)] | 0.067 mg/kg | 5.85
5 | CCCCCCCCCCCCCCCc1cc(OCC(COCCCCCCC[n+]2ccsc2)Oc2cc(C)on2)no1 (racemic) [Example 24, (2RS)-1-O-(5-Pentadecyl-3-isoxazolyl)-2-O-(5-methyl-3-isoxazolyl)-3-(7-thiazolioheptyl)glycerol methanesulfonate] | 0.03 mg/kg | 6.51
6 | CCCCCCCCCCCCCCCc1cc(OCC(COC(=O)NCCCCC[n+]2ccsc2)Oc2cc(C)on2)no1 (racemic) [Example 25, (2RS)-1-O-(5-Pentadecyl-3-isoxazolyl)-2-O-(5-methyl-3-isoxazolyl)-3-O-{N-(5-thiazoliopentyl)carbamoyl}glycerol bromide] | 0.055 mg/kg | 6.57
7 | CCCCCCCCCCCCCCCCCNC(=O)OCC(COC(=O)NCCCCC[n+]1ccsc1)Oc1cc(C)on1.[Br-] (racemic) [Example 33, 3-{5-[(2RS)-3-(N-Heptadecylcarbamoyloxy)-2-(5-methyl-3-isoxazolyloxy)propoxycarbonylamino]pentyl}thiazolium bromide] | 0.086 mg/kg | 6.51
8 | CCCCCCCCCCCCCCCCCNC(=O)OCC(COP(=O)([O-])OCC[n+]1ccsc1)Oc1cc(C)on1 (racemic) [Example 18, (2RS)-3-(N-Heptadecylcarbamoyloxy)-2-(5-methyl-3-isoxazolyloxy)propyl 2-thiazolioethyl phosphate (inner salt)] | 0.081 mg/kg | 5.32
9 | CCCCCCCCCCCCCCCCc1cc(OC[C@H](COC(=O)N[C@H](CCCCC[n+]2ccsc2)C(=O)OCC)Oc2ccon2)no1.CS(=O)(=O)[O-] (racemic) [Example 41, 3-{(6RS)-6-Ethoxycarbonyl-6-[(2RS)-3-(5-hexadecyl-3-isoxazolyloxy)-2-(3-isoxazolyloxy)propoxy]carbonylaminohexyl}thiazolium methanesulfonate] | 0.054 mg/kg | 6.46
